# Assay results as given in patent publication US20040043959A1, “Combination therapies for treating methylthioadenosine phosphorylase deficient cells” (priority 2002, published 2004).
# Molecular target: T1, Human MTAP (Homo sapiens, UniProt Q13126)
# T1 construct: six-histidine tag (His6) (N); made in house; host or cells: E. coli BL21 DE3
# T1 sequence (Q13126 1-283): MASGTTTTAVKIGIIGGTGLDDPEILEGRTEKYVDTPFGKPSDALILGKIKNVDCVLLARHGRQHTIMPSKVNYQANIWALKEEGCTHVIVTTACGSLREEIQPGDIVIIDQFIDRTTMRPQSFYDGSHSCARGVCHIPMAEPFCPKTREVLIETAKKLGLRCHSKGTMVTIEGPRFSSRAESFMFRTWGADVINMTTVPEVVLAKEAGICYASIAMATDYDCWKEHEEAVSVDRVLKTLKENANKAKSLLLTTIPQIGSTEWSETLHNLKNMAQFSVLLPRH
# Test: MTAP substrate assay, coupled spectrophotometric (adenine, xanthine oxidase)
# Type: biochemical
# Details: 2 nM MTAP; for activity at 50 µM: 10 min, read-out: MT-A—50: initial velocity as a percentage of the initial velocity with MTA as substrate; for MT-A—10: initial velocity as a percentage of the initial velocity with MTA as substrate: compound 10 uM, relative to MTA at 10 uM
# Description: An enzymatic assay to determine the activity of MTAP against a given substrate was performed. Human MTAP containing an N-terminal six-histidine tag was expressed in E. coli BL21 DE3 cells. The protein was purified to homogeneity by Ni2+ affinity chromatography. Enzymatic activity was measured using a coupled spectrophotometric assay designed to monitor the reaction product adenine (Savarese, T. M., Crabtree, G. W., and Parks, R. E. Jr., (1980) Biochem. Pharmacol. 30, 189-199). Various concentrations of the indicated 5′-deoxymethylthio adenosine (MTA) or substrate were incubated in assay buffer (40 mM potassium phosphate buffer, 1 mM, and DTT 0.8 units/ml xanthine oxidase coupling enzyme) for 5 minutes at 37° C. The reaction was initiated by the addition of MTAP. The exact concentration of enzyme used varied for each substrate tested and ranged from 2 nM to 500 nM. Activity as a function of enzyme concentration was determined for each substrate tested to ensure that the appropriate enzyme concentration was used. Activity was detected by continuous monitoring of absorbance at 305 nm for 10 minutes (ΔE=15,500 M^−1).
# Library compounds (10 and 50 uM) were tested using the assay described above with 2 nM MTAP enzyme. The resultant initial velocities are reported as a percentage of the initial velocity observed when MTA is the substrate. MTA controls, 10 and 50 uM concentrations, were run on each plate alongside the library compounds.
# [1] = compound 50 uM, relative to MTA at 50 uM
activity at 50 µM [1] [%],MT-A—10: initial velocity as a percentage of the initial velocity with MTA as substrate [%],MT-A—50: initial velocity as a percentage of the initial velocity with MTA as substrate [1] [%],Structure (SMILES)
4,6,–,Cc1ccc(C)c(SC[C@H]2O[C@@H](n3cnc4c(N)ncnc43)[C@H](O)[C@@H]2O)c1 [2(G)(28)]
4.5,−2,–,"Nc1ncnc2c1ncn2[C@@H]1O[C@H](CSc2ccc(Cl)cc2Cl)[C@@H](O)[C@H]1O [2(G)(130), (2R, 3R, 4S, 5S)-2-(6-amino-9H-purin-9-yl)-5-{[(2,4-dichlorophenyl)-thio]methyl}tetrahydro-furan-3,4-diol]"
7.5,3,–,"CCOC(=O)C(C)SC[C@H]1O[C@@H](n2cnc3c(N)ncnc32)[C@H](O)[C@@H]1O (stereo partly drawn) [2(G)(140), Ethyl 2-({[(2S, 3S, 4R, 5R)-5-(6-amino-9H-purin-9-yl)-3,4-dihydroxytetra-hydrofuran-2-yl]methyl}-thio)-propanoate]"
7,3,–,"Nc1ncnc2c1ncn2[C@@H]1O[C@H](CSc2ccccc2OC(F)(F)F)[C@@H](O)[C@H]1O [2(G)(116), (2R, 3R, 4S, 5S)-2-(6-amino-9H-purin-9-yl)-5-({[2-(trifluoromethoxy)-phenyl]thio}methyl)tetra-hydrofuran-3,4-diol]"
27,10,–,"CC(O)CSC[C@H]1O[C@@H](n2cnc3c(N)ncnc32)[C@H](O)[C@@H]1O (stereo partly drawn) [2(G)(141), (2R, 3R, 4S, 5S)-2-(6-amino-9H-purin-9-yl)-5-{[(2-hydroxypropyl)-thio]methyl}tetrahydro-furan-3,4-diol]"
–,19,17,"CC(=O)Nc1ccc(SC[C@H]2O[C@@H](n3cnc4c(N)ncnc43)[C@H](O)[C@@H]2O)cc1 [2(G)(13), N-[4-({[(2S, 3S, 4R, 5R)-5-(6-amino-9H-purin-9-yl)-dihydroxytetrahydro-furan-2-yl]methyl}thio)phenyl]acetamide]"
32,30,–,"Nc1ncnc2c1ncn2[C@@H]1O[C@H](CSCC(F)(F)F)[C@@H](O)[C@H]1O [2(G)(38), (2R, 3R, 4S, 5S)-2-(6-amino-9H-purin-9-yl)-5-{[(2,2,2-trifluoroethyl)-thio]methyl}tetrahydro-furan-3,4-diol]"
16,3.5,–,"Nc1ncnc2c1ncn2[C@@H]1O[C@H](CSCc2ccc(Cl)c(Cl)c2)[C@@H](O)[C@H]1O [2(G)(145), (2R, 3R, 4S, 5S)-2-(6-amino-9H-purin-9-yl)-5-{[(3,4-dichlorobenzyl)-thio]methyl}tetrahydro-furan-3,4-diol]"
7,6,–,"CCc1ccccc1SC[C@H]1O[C@@H](n2cnc3c(N)ncnc32)[C@H](O)[C@@H]1O [2(G)(26), (2R, 3R, 4S, 5S)-2-(6-amino-9H-purin-9-yl)-5-{[(2-ethylphenyl)-thio]methyl}tetrahydro-furan-3,4-diol]"
31.5,22.5,–,"CCCCOC(=O)CSC[C@H]1O[C@@H](n2cnc3c(N)ncnc32)[C@H](O)[C@@H]1O [2(G)(133), Butyl ({[(2S, 3S, 4R, 5R)-5-(6-amino-9H-purin-9-yl)-3,4-dihydroxytetra-hydrofuran-2-yl]methyl}-thio)acetate]"
40,35,–,CCOC(=O)c1cnc(SC[C@H]2O[C@@H](n3cnc4c(N)ncnc43)[C@H](O)[C@@H]2O)nc1N [2(G)(36)]
67.5,72,–,"CCCCCCSC[C@H]1O[C@@H](n2cnc3c(N)ncnc32)[C@H](O)[C@@H]1O [2(G)(126), (2R, 3R, 4S, 5S)-2-(6-amino-9H-purin-9-yl)-5-[(hexylthio)methyl]tetra-hydrofuran-3,4-diol]"
10,6,–,"CNC(=O)CSC[C@H]1O[C@@H](n2cnc3c(N)ncnc32)[C@H](O)[C@@H]1O [2(G)(56), 2-({[(2S, 3S, 4R, 5R)-5-(6-amino-9H-purin-9-yl)-dihydroxytetrahydrofuran-2-yl]methyl}thio)-N-methylacetamide]"
21,30,–,"Nc1ncnc2c1ncn2[C@@H]1O[C@H](CSCc2ccccc2Cl)[C@@H](O)[C@H]1O [2(G)(73), (2R, 3R, 4S, 5S)-2-(6-amino-9H-purin-9-yl)-5-{[(2-chlorobenzyl)thio]-methyl}tetrahydrofuran-3,4-diol]"
15,12,–,"CSc1ccc(SC[C@H]2O[C@@H](n3cnc4c(N)ncnc43)[C@H](O)[C@@H]2O)cc1 [2(G)(115), (2R, 3R, 4S, 5S)-2-(6-amino-9H-purin-9-yl)-5-({[4-(methylthio)phenyl]-thio}methyl)tetrahydro-furan-3,4-diol]"
3,2,–,"Nc1ncnc2c1ncn2[C@@H]1O[C@H](CSc2c(Cl)cccc2Cl)[C@@H](O)[C@H]1O [2(G)(102), (2R, 3R, 4S, 5S)-2-(6-amino-9H-purin-9-yl)-5-{[(2,6-dichIorophenyl)-thio]methyl}tetrahydro-furan-3,4-diol]"
2,13.5,–,"Nc1ncnc2c1ncn2[C@@H]1O[C@H](CSc2cccc(Cl)c2Cl)[C@@H](O)[C@H]1O [2(G)(151), (2R, 3R, 4S, 5S)-2-(6-amino-9H-purin-9-yl)-5-{[(2,3-dichlorophenyl)-thio]methyl}tetrahydro-furan-3,4-diol]"
9,15,–,"COC(=O)/C=C/c1ccc(SC[C@H]2O[C@@H](n3cnc4c(N)ncnc43)[C@H](O)[C@@H]2O)cc1 [2(G)(110), methyl (2E)-3-[4-({[(2S, 3S, 4R, 5R)-5-(6-amino-9H-purin-9-yl)-dihydroxy-tetrahydrofuran-2-yl]-methyl}thio)phenyl]-acrylate]"
8,4,–,"NC(=O)c1cccnc1SC[C@H]1O[C@@H](n2cnc3c(N)ncnc32)[C@H](O)[C@@H]1O [2(G)(60), 2-({[(2S, 3S, 4R, 5R)-5-(6-amino-9H-purin-9-yl)-3,4-dihydroxytetrahydro-furan-2-yl]methyl}thio)-nicotinamide]"
23,19,–,"Cc1nnc(SC[C@H]2O[C@@H](n3cnc4c(N)ncnc43)[C@H](O)[C@@H]2O)s1 [2(G)(52), (2R, 3R, 4S, 5S)-2-(6-amino-9H-purin-9-yl)-5-{[(5-methyl-1,3,4-thiadiazol-2-yl)thio]methyl}tetrahydro-furan-3,4-diol]"
11,15,–,"CC(C)c1ccc(SC[C@H]2O[C@@H](n3cnc4c(N)ncnc43)[C@H](O)[C@@H]2O)cc1 [2(G)(35), (2R, 3R, 4S, 5S)-2-(6-amino-9H-purin-9-yl)-5-{[(4-isopropylphenyl)-thio]methyl}tetrahydro-furan-3,4-diol]"
47,34,–,"Nc1nnc(SC[C@H]2O[C@@H](n3cnc4c(N)ncnc43)[C@H](O)[C@@H]2O)s1 [2(G)(9), (2R, 3R, 4S, 5S)-2-(6-amino-9H-purin-9-yl)-5-{[(5-amino-1,3,4-thiadiazol-2-yl)thio]methyl}tetrahydro-furan-3,4-diol]"
37,9,–,"Nc1ncnc2c1ncn2[C@@H]1O[C@H](CSc2nc3ccccc3c(=O)[nH]2)[C@@H](O)[C@H]1O [2(G)(50), 2-({[(2S, 3S, 4R, 5R)-2-(6-amino-9H-purin-9-yl)-dihydroxytetrahydro-furan-2-yl]methyl}thio)-quinazolin-4-(3H)-one]"
45,46,–,"Nc1nc(SC[C@H]2O[C@@H](n3cnc4c(N)ncnc43)[C@H](O)[C@@H]2O)c2[nH]cnc2n1 [2(G)(3), (2R, 3R, 4S, 5S)-2-(6-amino-9H-purin-9-yl)-5-{[(2-amino-7H-purin-6-yl)thio]methyl}tetrahydro-furan-3,4-diol]"
